Results: patent publication US9765101B2, “Organo-arsenoxide compounds and use thereof” (NewSouth Innovations Pty Limited, priority 2006, dated 2017)

Legend:
Type in all cases: cell-based, bovine
BAE cells [1] = assay: BAE cell proliferation assay (MTT, 72 h)
Experimental: BAE cells were from Cell Applications, San Diego, Calif. and BxPC-3, HT1080, LLC, PANC-1, MCF-7, HCT116 and K562 cells were from ATCC, Bethesda, Md. NB4 and MDCK2 cells were from Shane Supple (Kanematsu Laboratories, Royal Prince Alfred Hospital, Sydney, Australia) and P. Borst (The Netherlands Cancer Institute, Amsterdam, The Netherlands). BAE, HT1080, Panc-1, MCF-7, HCT116, MDCK2 and LLC cells were cultured in DMEM. NB4, K562 and BxPC-3 cells were cultured in RPMI medium. The cells were supplemented with 10% foetal calf serum (FBS), 2 mM L-glutamine, and 1 U·mL-1 penicillin/streptomycin. Cell culture plasticware was from Techno Plastic Products (Trasadingen, Switzerland). All other cell culture reagents were from Gibco (Gaithersburg, Md.).
Adherent cells were allowed to adhere overnight.

BAE cells [2] = assay: BAE cell proliferation assay, 24, 48 or 72 h (Example 2)
Experimental: Bovine aortic endothelial (BAE) cells were from Cell Application (San Diego, Calif.). BAE cells were cultured in DMEM supplemented with 10% fetal calf serum, 2 mM L-glutamine, and 5 units per mL penicillin and streptomycin (Gibco, Gaithersburg, Md.). Cells were cultured at 37° C. in a 5% CO2, 95% air atmosphere. BAE cells were seeded in 96-well plates (5,000 cells per well) in 0.2 ml of culture medium. After 24 h of growth, the medium was replaced with fresh culture medium supplemented with GSAO, CAO or 4H10 and cells were cultured for an additional 24, 48 or 72 h. Viable attached cells were determined using the tetrazolium salt MTT (Sigma, St. Louis, Mo.) according to the manufacturer's protocol. Results were expressed as percentage of untreated controls.

BAE cells [3] = assay: Accumulation of GSAO and CAO in BAE cells (ICPMS)
Experimental: (§1) Depending on the type of experiments, 1.6×10^6 or 7.5×10^5 BAE cells were seeded in petri dishes or 6-well-plates, respectively, and allowed to attach overnight. The medium was replaced and the cells were incubated for 30 min in the absence or presence of acivicin or 4H10. The cells were then incubated with 50 or 100 μM GSAO or CAO […] for 4 h. Cells were then washed twice with ice-cold PBS and lysed with 1 ml of 70% w/w nitric acid.

[4] = target: T1, multidrug resistance associated protein 1 (MRP-1) (Bos taurus, UniProt Q8HXQ5); assay: Accumulation in BAE cells with MRP-1 inhibitor 4H10
T1 construct: host or cells: BAE (bovine aortic endothelial) cells
Experimental: FIG. 16. […] A. CAO accumulates in cells at a much faster rate than GSAO. BAE cells were incubated with 50 μM GSAO or CAO for 4 h. Cellular arsenic levels were determined by ICPMS. The rates of accumulation are GSAO and CAO are 0.03 and 0.20 nmol As atoms per 10^6 cells, respectively. Data points are the mean±SD of three determinations. The results are representative of two experiments. […] BAE cells pretreated for 30 min with 10 μM of the MRP-1 inhibitor 4H10 were incubated with 50 μM GSAO or CAO for 2 h. Cellular arsenic levels were determined by ICPMS. Data points are the mean±SD of three determinations. The results are representative of two experiments. C. GSAO and CAO IC50 values for proliferation arrest of endothelial cells. BAE cells were incubated with 0.8-100 μM GSAO or CAO for 24, 48 or 72 h. Cell viability was determined using MTT. Results are expressed as percentage of control. Values are mean±SD of triplicate determinations. Results are representative of three experiments.
as §1, with “Cells were then washed twice with ice-cold PBS and lysed with 1 ml of 70% w/w nitric acid.” left out

T1 sequence (Q8HXQ5 whole entry): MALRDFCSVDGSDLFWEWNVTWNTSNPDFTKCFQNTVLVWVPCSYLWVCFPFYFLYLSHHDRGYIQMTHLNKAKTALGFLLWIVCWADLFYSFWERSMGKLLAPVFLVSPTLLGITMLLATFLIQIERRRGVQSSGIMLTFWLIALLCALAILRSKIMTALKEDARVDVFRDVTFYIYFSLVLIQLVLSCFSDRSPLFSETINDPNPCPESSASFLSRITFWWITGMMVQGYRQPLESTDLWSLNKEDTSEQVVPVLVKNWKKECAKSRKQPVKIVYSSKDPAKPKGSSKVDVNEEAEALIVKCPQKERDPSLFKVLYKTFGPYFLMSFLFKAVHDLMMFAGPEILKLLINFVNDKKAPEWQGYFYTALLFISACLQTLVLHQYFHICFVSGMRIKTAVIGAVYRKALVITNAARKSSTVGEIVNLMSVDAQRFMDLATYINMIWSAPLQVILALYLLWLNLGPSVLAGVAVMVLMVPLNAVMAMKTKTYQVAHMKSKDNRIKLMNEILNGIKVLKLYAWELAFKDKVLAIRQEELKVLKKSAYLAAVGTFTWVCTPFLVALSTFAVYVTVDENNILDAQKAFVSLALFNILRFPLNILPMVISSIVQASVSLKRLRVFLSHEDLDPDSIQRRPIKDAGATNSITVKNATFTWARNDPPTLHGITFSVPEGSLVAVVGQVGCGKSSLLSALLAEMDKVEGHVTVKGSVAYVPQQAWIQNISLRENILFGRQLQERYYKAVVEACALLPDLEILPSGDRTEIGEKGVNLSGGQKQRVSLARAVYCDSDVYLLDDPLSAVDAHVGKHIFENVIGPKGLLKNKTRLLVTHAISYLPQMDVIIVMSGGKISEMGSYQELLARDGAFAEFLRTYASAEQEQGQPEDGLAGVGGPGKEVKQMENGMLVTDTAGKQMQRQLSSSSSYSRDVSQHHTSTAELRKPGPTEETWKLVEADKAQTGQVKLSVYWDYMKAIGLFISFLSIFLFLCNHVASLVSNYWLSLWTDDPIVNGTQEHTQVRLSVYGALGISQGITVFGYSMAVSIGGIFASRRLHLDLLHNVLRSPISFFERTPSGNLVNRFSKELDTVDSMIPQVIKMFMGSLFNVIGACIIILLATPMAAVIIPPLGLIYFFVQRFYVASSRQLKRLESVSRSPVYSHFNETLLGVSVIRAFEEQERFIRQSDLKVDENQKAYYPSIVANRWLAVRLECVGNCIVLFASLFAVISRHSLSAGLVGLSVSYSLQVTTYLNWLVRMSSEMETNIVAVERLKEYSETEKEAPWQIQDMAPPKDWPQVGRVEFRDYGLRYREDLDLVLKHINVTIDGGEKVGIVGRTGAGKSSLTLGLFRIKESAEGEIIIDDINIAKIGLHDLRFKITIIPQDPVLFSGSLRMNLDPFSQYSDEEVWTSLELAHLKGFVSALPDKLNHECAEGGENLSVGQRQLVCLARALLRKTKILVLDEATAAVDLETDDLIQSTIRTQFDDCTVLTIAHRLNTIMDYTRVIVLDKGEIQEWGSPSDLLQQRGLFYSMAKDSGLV

`CC(C)(SCC(=O)Nc1ccc([As](=O)(O)O)cc1)[C@@H](N)C(=O)O` [(S)-Penicillamine-arsenonic acid, reference compound] was tested, and the “effect on proliferation of BAE cells” value (BAE cells [1]) was “no effect on proliferation”.

With `NC(CSCC(=O)Nc1ccc([As](O)O)cc1)C(=O)O` (stereo not drawn) [CAO, 4-(N—(S-cysteinylacetyl)amino)-phenylarsinous acid] the “anti-proliferative activity compared to GSAO” value (BAE cells [2]) was “greater anti-proliferative activity than GSAO”, the “rate of accumulation in endothelial cells, fold faster than GSAO” value (BAE cells [3]) was ~8 fold and the rate of accumulation (BAE cells [3]; 50 μM, 4 h) was 0.20 nmol As atoms per 10^6 cells. The “export by multidrug resistance associated protein 1” value [4] was “exported from cells by the multidrug resistance associated protein 1” and the “increase of cellular accumulation when MRP-1 was inhibited” value ([4]; 10 μM 4H10 30 min, then 50 μM compound 2 h) was ~3 fold.
